Test results taken from patent US11845752B2, “Substituted imidazo[1,5-a]pyrazines for the treatment of hepatitis B” (ALIGOS THERAPEUTICS, INC., priority 2020, dated 2023).
pEC50: −log10 of the molar value. Like-named read-outs stand apart in the source and are kept apart here.

Tested on: HBV
Test: HBV-DNA antiviral assay using HepG2.117 cells (intracellular HBV DNA by qPCR)
Format: cell-based, HBV genotype D
Details: HBV DNA inhibition, 3 days incubation, read-out: EC50
In short: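 HepG2.117 cells (stably integrated genotype D HBV, Tet-off) seeded without doxycycline to induce pgRNA, then treated next day with 9 concentrations (4-fold dilutions, 2% DMSO) for 3 days at 37 °C. Intracellular HBV DNA quantified by qPCR against standard curve, viability by ATP content; inhibition relative to DMSO control, EC50/EC90/CC50 by non-linear regression.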

[1] = Hepatitis B virus, HepG2.117, 72 h

| Structure (SMILES) | pEC50 [1] | pEC50 |
| --- | --- | --- |
| CC1Cn2c(c(C(=O)NCc3ccccc3-c3ccccn3)n(-c3ccc(N4CC5(CN(C)C5)C4)cc3)c2=O)CN1C(=O)c1ccc(Br)c(C(F)(F)F)c1 (single isomer, unassigned) [Compound 77a] | > 7.30 |  |
| CC1Cn2c(c(C(=O)NCc3ccccc3-c3ccccn3)n(-c3ccc(N4CC5(CN(C)C5)C4)cc3)c2=O)CN1C(=O)c1ccc(Br)c(C(F)(F)F)c1 (single isomer, unassigned) [Compound 77b] |  | 6.30 to 7.30 |
| CC1Cn2c(c(C(=O)NCc3ccccc3-c3ncccn3)n(-c3ccc(N4CC5(CN(C)C5)C4)cc3)c2=O)CN1C(=O)c1ccc(Br)c(C(F)(F)F)c1 (single isomer, unassigned) [Compound 78a] | > 7.30 |  |
| CC1Cn2c(c(C(=O)NCc3ccccc3-c3ccncn3)n(-c3ccc4nn(CC(F)(F)F)cc4c3)c2=O)CN1C(=O)c1ccc(Br)c(C(F)(F)F)c1 (single isomer, unassigned) [Compound 79a] | 6.30 to 7.30 |  |
| CC1Cn2c(c(C(=O)NCc3ccccc3-c3ccncn3)n(-c3ccc4nn(CC(F)(F)F)cc4c3)c2=O)CN1C(=O)c1ccc(Br)c(C(F)(F)F)c1 (single isomer, unassigned) [Compound 79b] |  | > 7.30 |
| CC1Cn2c(c(C(=O)NCc3ccccc3-c3ccncn3)n(-c3ccc(N4CCC5(CC4)CN(C)C5)cc3)c2=O)CN1C(=O)c1ccc(Br)c(C(F)(F)F)c1 (single isomer, unassigned) [Compound 80a] | 6.30 to 7.30 |  |
| CC1Cn2c(c(C(=O)NCc3ccccc3-c3ccncn3)n(-c3ccc(N4CCC5(CC4)CN(C)C5)cc3)c2=O)CN1C(=O)c1ccc(Br)c(C(F)(F)F)c1 (single isomer, unassigned) [Compound 80b] |  | 6.30 to 7.30 |
| CC1Cn2c(c(C(=O)NCc3ccccc3-c3ncccn3)n(-c3ccc(OCC4(O)CC4)cc3)c2=O)CN1C(=O)c1ccc(Br)c(C(F)(F)F)c1 (single isomer, unassigned) [Compound 81a] | 6.30 to 7.30 |  |
| CC1Cn2c(c(C(=O)NCc3ccccc3-c3ncccn3)n(-c3ccc(OCC4(O)CC4)cc3)c2=O)CN1C(=O)c1ccc(Br)c(C(F)(F)F)c1 (single isomer, unassigned) [Compound 81b] |  | > 7.30 |
| CC1Cn2c(c(C(=O)NCc3ccccc3-c3ccncn3)n(-c3ccc(N4CC5(CCN5C)C4)cc3)c2=O)CN1C(=O)c1ccc(Br)c(C(F)(F)F)c1 (single isomer, unassigned) [Compound 84a] | 6.30 to 7.30 |  |
| CC1Cn2c(c(C(=O)NCc3ccccc3-c3ccncn3)n(-c3ccc(N4CC5(CCN5C)C4)cc3)c2=O)CN1C(=O)c1ccc(Br)c(C(F)(F)F)c1 (single isomer, unassigned) [Compound 84b] |  | > 7.30 |
| CC1Cn2c(c(C(=O)NCc3ccccc3-c3ccncn3)n(-c3ccc(N4CCC5(CN(C)C5)C4)cc3)c2=O)CN1C(=O)c1ccc(Br)c(C(F)(F)F)c1 (single isomer, unassigned) [Compound 88a] | > 7.30 |  |
| CC1Cn2c(c(C(=O)NCc3ccccc3-c3ccncn3)n(-c3ccc(N4CCC5(CN(C)C5)C4)cc3)c2=O)CN1C(=O)c1ccc(Br)c(C(F)(F)F)c1 (single isomer, unassigned) [Compound 88b] |  | 6.30 to 7.30 |
| CC1Cn2c(c(C(=O)NCc3ccccc3-c3ccncn3)n(-c3ccc4oc(N)nc4c3)c2=O)CN1C(=O)c1ccc(Br)c(Cl)c1 (single isomer, unassigned) [Compound 92a] | 5.30 to 6.30 |  |
| CC1Cn2c(c(C(=O)NCc3ccccc3-c3ccncn3)n(-c3ccc4oc(N)nc4c3)c2=O)CN1C(=O)c1ccc(Br)c(Cl)c1 (single isomer, unassigned) [Compound 92b] |  | 5.30 to 6.30 |
| CC1Cn2c(c(C(=O)NCc3ccccc3-c3ccncn3)n(-c3ccc4oc(N)nc4c3)c2=O)CN1C(=O)c1ccc(Br)c(C(F)(F)F)c1 (single isomer, unassigned) [Compound 93a, (6R*)-2-(2-amino-1,3-benzoxazol-5-yl)-7-[4-bromo-3-(trifluoromethyl)benzoyl]-6-methyl-3-oxo-N-{[2-(pyrimidin-4-yl)phenyl]methyl}-5H,6H,8H-imidazo[1,5-a]pyrazine-1-carboxamide] |  | 5.30 to 6.30 |
| CC1Cn2c(c(C(=O)NCc3ccccc3-c3ccncn3)n(-c3ccc4oc(N)nc4c3)c2=O)CN1C(=O)c1ccc(Br)c(C(F)(F)F)c1 (single isomer, unassigned) [Compound 93b, (6S*)-2-(2-amino-1,3-benzoxazol-5-yl)-7-[4-bromo-3-(trifluoromethyl)benzoyl]-6-methyl-3-oxo-N-{[2-(pyrimidin-4-yl)phenyl]methyl}-5H,6H,8H-imidazo[1,5-a]pyrazine-1-carboxamide] |  | 6.30 to 7.30 |
| CN[C@H](C)COc1ccc(-n2c(C(=O)NCc3ccccc3-c3ncccn3)c3n(c2=O)C[C@@H](C)N(C(=O)c2ccc(Br)c(C(F)(F)F)c2)C3)cc1 (single isomer, unassigned) [Compound 95a] | 6.30 to 7.30 |  |
| C[C@H](COc1ccc(-n2c(C(=O)NCc3ccccc3-c3ncccn3)c3n(c2=O)C[C@@H](C)N(C(=O)c2ccc(Br)c(C(F)(F)F)c2)C3)cc1)N1CCOCC1 (single isomer, unassigned) [Compound 96a] | > 7.30 |  |
| C[C@H](COc1ccc(-n2c(C(=O)NCc3ccccc3-c3ncccn3)c3n(c2=O)C[C@@H](C)N(C(=O)c2ccc(Br)c(C(F)(F)F)c2)C3)cc1)N(C)C (single isomer, unassigned) [Compound 97a] | 6.30 to 7.30 |  |

| Structure (SMILES) | pEC50 [1] | pEC50 |
| --- | --- | --- |
| C[C@H](COc1ccc(-n2c(C(=O)NCc3ccccc3-c3ncccn3)c3n(c2=O)C[C@H](C)N(C(=O)c2ccc(Br)c(C(F)(F)F)c2)C3)cc1)N(C)C (single isomer, unassigned) [Compound 97b] | > 7.30 |  |
| CC1Cn2c(c(C(=O)NCc3ccccc3-c3nccc(C(F)(F)F)n3)n(-c3ccc(N4CC5(CN(C)C5)C4)cc3)c2=O)CN1C(=O)c1ccc(Br)c(C(F)(F)F)c1 (single isomer, unassigned) [Compound 98a] |  | 6.30 to 7.30 |
| CC1Cn2c(c(C(=O)NCc3ccccc3-c3nccc(C(F)(F)F)n3)n(-c3ccc(N4CC5(CN(C)C5)C4)cc3)c2=O)CN1C(=O)c1ccc(Br)c(C(F)(F)F)c1 (single isomer, unassigned) [Compound 98b] |  | 5.30 to 6.30 |
| CC1Cn2c(c(C(=O)NCc3ccccc3-c3ccn(CC(F)(F)F)n3)n(-c3ccc(N4CC5(CN(C)C5)C4)cc3)c2=O)CN1C(=O)c1ccc(Br)c(C(F)(F)F)c1 (single isomer, unassigned) [Compound 99a] | 6.30 to 7.30 |  |
| CC1Cn2c(c(C(=O)NCc3ccccc3-c3ccn(CC(F)(F)F)n3)n(-c3ccc(N4CC5(CN(C)C5)C4)cc3)c2=O)CN1C(=O)c1ccc(Br)c(C(F)(F)F)c1 (single isomer, unassigned) [Compound 99b] |  | 6.30 to 7.30 |
| CC1Cn2c(c(C(=O)NCc3ccccc3-c3ncccn3)n(-c3ccc4c(cnn4CC(F)(F)F)c3)c2=O)CN1C(=O)c1ccc(Br)c(C(F)(F)F)c1 (single isomer, unassigned) [Compound 100a] | > 7.30 |  |
| CC1Cn2c(c(C(=O)NCc3ccccc3-c3ncccn3)n(-c3ccc4c(cnn4CC(F)(F)F)c3)c2=O)CN1C(=O)c1ccc(Br)c(C(F)(F)F)c1 (single isomer, unassigned) [Compound 100b] |  | > 7.30 |
| CC1Cn2c(c(C(=O)NCc3ccccc3-c3ncccn3)n(-c3ccc4c(cnn4C[C@@H](O)C(F)(F)F)c3)c2=O)CN1C(=O)c1ccc(Br)c(C(F)(F)F)c1 (single isomer, unassigned) [Compound 101a] | 6.30 to 7.30 |  |
| CC1Cn2c(c(C(=O)NCc3ccccc3-c3ncccn3)n(-c3ccc4c(c3)nnn4CC(F)(F)F)c2=O)CN1C(=O)c1ccc(Br)c(C(F)(F)F)c1 (single isomer, unassigned) [Compound 103a] | 6.30 to 7.30 |  |
| CC1Cn2c(c(C(=O)NCc3ccccc3-c3ncccn3)n(-c3ccc4c(c3)nnn4CC(F)(F)F)c2=O)CN1C(=O)c1ccc(Br)c(C(F)(F)F)c1 (single isomer, unassigned) [Compound 103b] |  | > 7.30 |
| CC1Cn2c(c(C(=O)NCc3c(F)cccc3Cl)n(-c3ccc4c(cnn4CC(F)(F)F)c3)c2=O)CN1C(=O)c1ccc(Br)c(C(F)(F)F)c1 (single isomer, unassigned) [Compound 104a] | > 7.30 |  |
| CC1Cn2c(c(C(=O)NCc3c(F)cccc3Cl)n(-c3ccc4c(cnn4CC(F)(F)F)c3)c2=O)CN1C(=O)c1ccc(Br)c(C(F)(F)F)c1 (single isomer, unassigned) [Compound 104b] |  | 6.30 to 7.30 |
| CC1Cn2c(c(C(=O)NCc3ccccc3-c3ncccn3)n(-c3ccc4nn(C[C@@H](O)C(F)(F)F)cc4c3)c2=O)CN1C(=O)c1ccc(Br)c(C(F)(F)F)c1 (single isomer, unassigned) [Compound 105a] | > 7.30 |  |
| CC1Cn2c(c(C(=O)NCc3c(F)cccc3Cl)n(-c3ccc(N4CC5(CN(C)C5)C4)cc3)c2=O)CN1C(=O)c1ccc(Br)c(C(F)(F)F)c1 (single isomer, unassigned) [Compound 106a] | 6.30 to 7.30 |  |
| CC1Cn2c(c(C(=O)NCc3c(F)cccc3Cl)n(-c3ccc(N4CC5(CN(C)C5)C4)cc3)c2=O)CN1C(=O)c1ccc(Br)c(C(F)(F)F)c1 (single isomer, unassigned) [Compound 106b] |  | 6.30 to 7.30 |
| CC1Cn2c(c(C(=O)NCc3ccccc3-c3ncccn3)n(-c3ccc4oncc4c3)c2=O)CN1C(=O)c1ccc(Br)c(C(F)(F)F)c1 (single isomer, unassigned) [Compound 108a] | 5.30 to 6.30 |  |
| CC1Cn2c(c(C(=O)NCc3ccccc3-c3ncccn3)n(-c3ccc4oncc4c3)c2=O)CN1C(=O)c1ccc(Br)c(C(F)(F)F)c1 (single isomer, unassigned) [Compound 108b] |  | 5.30 to 6.30 |
| CC1Cn2c(c(C(=O)NCc3ccccc3-c3ncccn3)n(-c3ccc4c(cnn4C4CNC4)c3)c2=O)CN1C(=O)c1ccc(Br)c(C(F)(F)F)c1 (single isomer, unassigned) [Compound 109a] | 5.30 to 6.30 |  |
| CC1Cn2c(c(C(=O)NCc3ccccc3-c3ncccn3)n(-c3ccc4c(cnn4C4CNC4)c3)c2=O)CN1C(=O)c1ccc(Br)c(C(F)(F)F)c1 (single isomer, unassigned) [Compound 109b] |  | 5.30 to 6.30 |
